From patent US8545834B2, “G-substrate for the treatment and prevention of parkinson's disease” (The McLean Hospital Corporation, priority 2007, dated 2013)

Columns and labels:
[1] = test system: BE(2)-M17 cells; assay: In vitro protection assays (MTS cell viability, LDH release) against neurotoxins; assay type: cell-based, human; conditions: lentiviral overexpression in BE(2)-M17 cells, toxin 20 hrs
Procedure: Viability of the M17 cells was assessed following exposure to a variety of neurotoxins, each representing different aspects of PD pathology. 6-hydroxydopamine (6-OHDA) causes oxidative stress. MG-132 induces proteasome inhibition. And, MPP+ causes mitochondrial dysfunction by inhibiting Complex I. Cytotoxicity of M17 cells was determined using both cell viability assays and LDH release. G-substrate overexpression in M17 cells was confirmed by Western blot analysis (FIG. 3A) and by immunocytochemistry (FIG. 3B).
BE(2)-M17 cells were transduced with lentivirus expressing control or G-substrate with a multiplicity of infection 15. Cells were grown in Optimem™ (Invitrogen, Carlsbad, Calif.) supplemented with 10% heat-inactivated fetal calf serum (Hyclone, Logan, Utah), nonessential amino acid and sodium pyruvate. Cells were maintained at 37° C., in 5% CO2 humid atmosphere. For the bioassay, cells were plated in 96 well plates at 5000 per well. The next day, cells were treated with various concentrations of 6-OHDA (Sigma), MG-132 (Calbiochem) and MPP+ (Sigma) for 20 hrs. The supernatant was used to determine cytotoxicity using LDH release assay kit (Roche, Indianapolis, Ind.) and the cells remaining on the plate was used to determine cell viability using MTS based solution, CellTiter 96 AQueous One™ solution cell proliferation assay (Promega, Madison, Wis.).
Three different siRNAs for human G-substrate as described herein, a negative control siRNA, and a validated Akt siRNA (Ambion; Austin, Tex.) were used. Cells were plated in 96 well plates at 5000 per well with siRNAs and siPORT NeoFX transfection agent (Ambion, Austin, Tex.). After 48 hrs of incubation with siRNAs, each of the toxicants (6-OHDA, MG-132 or MPP+) were applied to the cells. Cell viability and cytotoxicity was measured after 20 hrs of toxin exposure.

[2] = test system: Akt, GSK3β; assay: In vivo Akt and GSK3β phosphorylation, Western blot of substantia nigra and striata; design: species or system rat; conditions: rats
Procedure: The in vivo effect of G-substrate overexpression on Akt and GSK3β phosphorylation was investigated. Substantia nigra (FIG. 12R) and striata (FIG. 12T) of the control (empty vector) lentivirus and G-substrate injected were dissected and a Western blot analysis was performed.
Animals were deeply anesthetized with an i.p. injection sodium pentobarbital and were sacrificed by exsanguination with the aid of ice-cold saline perfusion. For immunohistochemistry, the brains were then fixed with a 4% paraformaldehyde solution. The brains were then removed from the skull and placed in fresh 4% paraformaldehyde solution for 1 h, and equilibrated through 20% and 30% sucrose solutions and refrigerated until cutting for immunohistochemistry. For immunoblotting, brains injected with lenti-empty vector+lenti-eGFP (n=10) or lenti-G substrate+lenti-eGFP (n=10) were rapidly removed after saline perfusion and sliced coronally using a tissue chopper set to 1 mm (Campden Instruments Ltd., Lafayette, Ind.). On an inverted glass Petri dish over ice, regions of interest (striatum and substantia nigra region) were dissected from the individual 1 mm tissue slices, frozen on dry ice, and stored at −80° C.
Cells and tissue samples were collected from and suspended in lysis buffer containing: 50 mM Tris-HCl, 0.15 M NaCl, 0.32 M sucrose, 1.0 mM EDTA, and 1% NP-40. In addition, phosphatase inhibitors I and II (1:100) and protease inhibitors (1:100) were added fresh prior to cell lysis (Sigma-Aldrich, P2850, P5276, and P8340 respectively). Following cell lysis, the homogenate was centrifuged, a portion of the supernatant was reserved for protein determination (BCA Assay, Pierce, Rockford, Ill.) and the remaining was stored at −20° C. 20 μg (in vitro cell preps) and 50 μg (tissue dissections) of solubilized protein were mixed 1:1 with sample buffer and boiled for 5 min. The samples and molecular weight standards were separated using the Criterion precast 10% SDS-polyacrylamide gel system (Bio-Rad, Hercules, Calif.). […]

[3] = G-substrate versus control lentivirus

G-substrate: human wild type G-substrate (SEQ ID NO.: 1) overexpressed from a lentiviral vector
protection against MPP+-induced toxicity (cell viability, LDH release) [1]: neither wild-type nor T123A mutant G-substrate overexpression was protective | neuroprotection against 6-OHDA toxicity (cell viability, LDH release) ([1]; compared to control): neuroprotective | neuroprotection against MG-132 toxicity (cell viability, LDH release) ([1]; compared to control): neuroprotective | pAkt levels ([2]; substantia nigra and striata, compared to control lentivirus): 1.38 fold | level of pGSK3β in the SN [2, 3]: unchanged | level of pGSK3β in the striatum [2, 3]: modestly but significantly higher
